Common to all, as to format: biochemical
The target in test [1] is T1, Steely1 type III PKS domain (Dictyostelium discoideum, UniProt Q55E72).
T1 construct: poly-histidine (pHIS-8 vector, thrombin-cleavable) (N); made in house; host or cells: E. coli BL21(DE3) or CodonPlus (Stratagene)
T1 sequence (Q55E72 2776-3147): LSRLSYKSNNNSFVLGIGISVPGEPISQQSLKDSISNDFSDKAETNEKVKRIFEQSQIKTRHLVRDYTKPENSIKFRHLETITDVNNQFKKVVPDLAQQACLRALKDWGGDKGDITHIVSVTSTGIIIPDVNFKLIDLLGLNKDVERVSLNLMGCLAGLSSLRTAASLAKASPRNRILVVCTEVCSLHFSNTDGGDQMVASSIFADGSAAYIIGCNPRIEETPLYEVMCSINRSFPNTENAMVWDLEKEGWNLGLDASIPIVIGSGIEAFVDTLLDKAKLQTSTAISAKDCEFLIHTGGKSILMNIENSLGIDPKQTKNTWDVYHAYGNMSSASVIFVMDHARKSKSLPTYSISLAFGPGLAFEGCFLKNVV
Nature of the test: HPLC-MS-MS analysis of in vitro assays with unlabeled malonyl-CoA. The settings on record: overnight, Bis-Tris Propane pH 7.0. The protocol: (§1) The related D. discoideum DIF-2 acylphloroglucinol scaffold seems to be derived from a pentanoyl intermediate. Therefore, in vitro assays of each steely C-terminal domain were also primed with butanoyl-CoA (12), as pentanoyl-CoA is not commercially available.
(§2) For HPLC-MS-MS analyses 25 μl injections of similarly prepared overnight reactions (but without organic extraction) buffered with 100 mM Bis-Tris Propane (pH 7.0), using unlabeled malonyl-CoA, were used. LC-MS-MS analyses were carried out on an Agilent 1100 HPLC with an integrated Agilent LC/MSD Trap XCT ion trap mass spectrometer, using a reversed-phase C18 column (4.6×150 mm; Gemini) maintained at 30° C. A gradient mobile phase ramped from 5% to 100% acetonitrile in water (with each solvent containing 0.1% v/v formic acid) between minutes 3 and 13 of a 25-min run using a flow rate of 0.5 ml min^−1 and a 0.1 ml min^−1 post column injection of 20 mM ammonium acetate in water. UV absorbance was monitored at 286 nm.
(§3) PCP was identified by direct HPLC-MS-MS comparison with an authentic synthetic standard, kindly provided by S. Horinouchi and N. Funa. Other hexanoyl- and butanoyl-primed enzymatic products were identified by comparing their relative HPLC elution times and negative MS-MS fragmentation patterns with previously published LC-MS-MS analyses of authentic standards (Funa et al. (2002) “Properties and substrate specificity of RppA, a chalcone synthase-related polyketide synthase in Streptomyces griseus” J Biol Chem 277:4628-4635). EICs with parent ion masses of plausible polyketide products were used to detect trace amounts of minor enzymatic products, but only triketide and tetraketide products were observed.

For test [2], the target named is T2, Steely2 type III PKS domain (Dictyostelium discoideum, UniProt Q54FI3).
T2 construct: poly-histidine (pHIS-8 vector, thrombin-cleavable) (N); made in house; host or cells: E. coli BL21(DE3) or CodonPlus (Stratagene)
T2 sequence (Q54FI3 2595-2968): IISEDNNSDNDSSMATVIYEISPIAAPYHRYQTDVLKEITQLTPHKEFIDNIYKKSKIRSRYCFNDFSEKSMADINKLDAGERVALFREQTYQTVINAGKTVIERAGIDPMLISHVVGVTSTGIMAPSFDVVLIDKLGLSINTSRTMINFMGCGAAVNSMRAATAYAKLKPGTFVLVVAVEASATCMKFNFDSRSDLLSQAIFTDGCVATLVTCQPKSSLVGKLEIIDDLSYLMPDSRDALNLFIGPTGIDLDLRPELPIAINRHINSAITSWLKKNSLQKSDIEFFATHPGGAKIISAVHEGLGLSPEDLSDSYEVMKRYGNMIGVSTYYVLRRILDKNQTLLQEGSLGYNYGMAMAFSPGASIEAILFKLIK
The description is as above. The settings on record: overnight, Bis-Tris Propane pH 7.0. As to the method:
as §1, §2, §3

Test [3] concerns the target T3, Steely1 C-terminal type III PKS domain (Dictyostelium discoideum, UniProt Q55E72).
T3 construct: poly-histidine (pHIS-8 vector, thrombin-cleavable) (N); made in house; host or cells: E. coli BL21(DE3) or CodonPlus (Stratagene)
T3 sequence (Q55E72 2776-3147): T1 sequence (Q55E72 2776-3147)
Nature of the test: In vitro polyketide extension assay with [14-C]malonyl-CoA and CoA-linked starters, TLC/autoradiography. The settings on record: heterologously expressed domain, radiolabeled malonyl-CoA extender. As to the method:
(§4) These differences in in vitro starter specificity are consistent with the substantial divergence of these steely active site predicted by homology modeling.
(§5) Standard 100 μL in vitro assays of heterologously expressed Steely C-terminal domains using [14-C]malonyl-CoA and various CoA-linked starters were conducted, extracted with ethyl acetate, analyzed by reverse-phase TLC, and visualized by autoradiography as previously reported.

The target in test [4] is T4, Steely2 C-terminal type III PKS domain (Dictyostelium discoideum, UniProt Q54FI3).
T4 construct: poly-histidine (pHIS-8 vector, thrombin-cleavable) (N); made in house; host or cells: E. coli BL21(DE3) or CodonPlus (Stratagene)
T4 sequence (Q54FI3 2595-2968): T2 sequence (Q54FI3 2595-2968)
Described as above. The settings on record: heterologously expressed domain, radiolabeled malonyl-CoA extender. The protocol:
as §4, §5

SMILES strings stand for the structures.

As for `CCCC(=O)SCCNC(=O)CCNC(=O)[C@H](O)C(C)(C)COP(=O)(O)OP(=O)(O)OC[C@H]1O[C@@H](n2cnc3c(N)ncnc32)[C@H](O)[C@@H]1OP(=O)(O)O` [butanoyl-CoA], the “enzymatic products of starter-primed assay” value in test [1] and in test [2] was “no effect on the cyclization fate” each time.

Take `CC(C)CC(=O)SCCNC(=O)CCNC(=O)[C@H](O)C(C)(C)COP(=O)(O)OP(=O)(O)OC[C@H]1O[C@@H](n2cnc3c(N)ncnc32)[C@H](O)[C@@H]1OP(=O)(O)O` [isovaleryl-CoA]: the “polyketide extension activity with the substance as starter” value (“polyketide extension activity” below) in test [3] is “not Steely1 would accept”; in test [4] it was “would accept”.

Consider `CC(C)(COP(=O)(O)OP(=O)(O)OC[C@H]1O[C@@H](n2cnc3c(N)ncnc32)[C@H](O)[C@@H]1OP(=O)(O)O)[C@@H](O)C(=O)NCCC(=O)NCCSC(=O)CC(=O)O` [malonyl-CoA], for which the “polyketide extension activity” value in test [3] and in test [4] was “Neither enzyme showed significant polyketide extension activity” throughout.

In the case of `CC(C)(COP(=O)(O)OP(=O)(O)OC[C@H]1O[C@@H](n2cnc3c(N)ncnc32)[C@H](O)[C@@H]1OP(=O)(O)O)[C@@H](O)C(=O)NCCC(=O)NCCSC(=O)/C=C/c1ccc(O)cc1` [p-coumaroyl-CoA], the “polyketide extension activity” value in test [3] and in test [4] was “Neither enzyme showed significant polyketide extension activity” throughout.

Turning to `CCCCCC(=O)SCCNC(=O)CCNC(=O)[C@H](O)C(C)(C)COP(=O)(O)OP(=O)(O)OC[C@H]1O[C@@H](n2cnc3c(N)ncnc32)[C@H](O)[C@@H]1OP(=O)(O)O` [hexanoyl-CoA], the “enzymatic products of starter-primed assay” value is “produced only triketide (10) and tetraketide (11) lactonization-derived pyrones” in test [1]; “catalyzes three rounds of polyketide chain extension and the final CHS-like intramolecular C6 to C1 Claisen condensation” in test [2]. For the same molecule, the “polyketide extension activity” value in test [3] and in test [4] was “catalyze iterative polyketide extension” in each case.

Turning to `CC(=O)SCCNC(=O)CCNC(=O)[C@H](O)C(C)(C)COP(=O)(O)OP(=O)(O)OC[C@H]1O[C@@H](n2cnc3c(N)ncnc32)[C@H](O)[C@@H]1OP(=O)(O)O` [acetyl-CoA], the “polyketide extension activity” value in test [3] and in test [4] was “Neither enzyme showed significant polyketide extension activity” throughout.

As to `CCCCCCCC(=O)SCCNC(=O)CCNC(=O)[C@H](O)C(C)(C)COP(=O)(O)OP(=O)(O)OC[C@H]1O[C@@H](n2cnc3c(N)ncnc32)[C@H](O)[C@@H]1OP(=O)(O)O` [octanoyl-CoA], the “polyketide extension activity” value in test [3] was “accepted”; in test [4], “only Steely1 accepted”.
